Tests used:
MCT1 = biological target: T1, MCT1 (Homo sapiens, UniProt P53985); test: MCT1 transport assay (L-lactate influx, BCECF-AM intracellular pH); assay type: cell-based; conditions: BT-20 cells expressing exclusively MCT1
T1 construct: BT-20 cells—a triple negative human breast cancer cell line expressing exclusively MCT1 (confirmed by Western blotting); host or cells: BT-20
T1 sequence (P53985 1-500): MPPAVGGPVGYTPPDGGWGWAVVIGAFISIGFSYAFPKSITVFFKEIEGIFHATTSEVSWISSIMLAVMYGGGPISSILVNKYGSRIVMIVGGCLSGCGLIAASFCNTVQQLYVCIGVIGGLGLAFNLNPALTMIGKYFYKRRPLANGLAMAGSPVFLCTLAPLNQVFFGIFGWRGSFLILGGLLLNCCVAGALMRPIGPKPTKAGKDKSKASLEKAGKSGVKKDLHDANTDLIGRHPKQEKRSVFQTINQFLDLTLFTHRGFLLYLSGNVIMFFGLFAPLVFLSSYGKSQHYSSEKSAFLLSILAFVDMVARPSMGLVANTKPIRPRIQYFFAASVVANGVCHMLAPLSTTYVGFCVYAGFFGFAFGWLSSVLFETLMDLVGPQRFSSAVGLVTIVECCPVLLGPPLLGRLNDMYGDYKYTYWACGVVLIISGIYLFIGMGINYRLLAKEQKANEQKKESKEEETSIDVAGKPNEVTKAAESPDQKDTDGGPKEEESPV
T1 sequence (P35613 140-385 partner limits assumed): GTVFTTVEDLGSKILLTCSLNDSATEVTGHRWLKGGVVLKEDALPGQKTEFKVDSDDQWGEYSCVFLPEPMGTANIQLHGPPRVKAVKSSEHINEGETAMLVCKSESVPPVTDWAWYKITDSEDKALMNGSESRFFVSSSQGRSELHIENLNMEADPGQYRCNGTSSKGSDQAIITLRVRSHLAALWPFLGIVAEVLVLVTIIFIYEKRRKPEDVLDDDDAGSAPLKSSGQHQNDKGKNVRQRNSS
From the text: The following in vitro MCT4 and MCT1 transport assays were used to measure the effect of the compounds on L-lactate influx into two different cell lines: • a) MDA-MB-231 cells—a triple negative human breast cancer cell line expressing exclusively MCT4 (confirmed by Western blotting) was used for the MCT4 transport assay, • b) BT-20 cells—a triple negative human breast cancer cell line expressing exclusively MCT1 (confirmed by Western blotting) was used for the
(§1) The compounds' efficacy in both assays was determined by calculating their IC50 value (the concentration of test compound that inhibited 50% of biological activity).
(§2) MCT4 is predominantly involved in cellular efflux of lactate from the cell, preventing intracellular acidification. In the MCT4 in vitro transport system described here it was possible to drive influx of lactate in the cells and test the compounds efficacy in preventing this process. MCT1 is involved in influx-efflux of lactate, and because it is closely related to MCT4, it is a major selectivity target for MCT4 inhibitor. The MCT1 in vitro transport system described here measured the influx of lactate in the cells and ability of test compounds in preventing this process.
BT-20 (ATCC); Media: EMEM+10% FBS+1% PS
(§3) Tyrode's Solution pH7.4 (NaCl 119 mM; KC1 5 mM; HEPES pH7.4 25 mM; CaCl2 2 mM; MgCl2 2 mM; Glucose 6 g/L)
(§4) The following assay was performed to assess MCT4 (MDA-MB-231 cell line) or MCT1 (BT-20 cell line) activity by monitoring the intracellular pH change that accompanies lactate/proton transport using the pH-sensitive fluorescent dye BCECF-AM.
(§5) Compound preparation: The compounds were serially diluted in 100% DMSO 1:3 for 8 pts and transferred (500 nl) to a 96-well plate by Echo.
(§6) Cell preparation: Cells were briefly rinsed with 10 ml of PBS solution to remove all traces of serum, trypsinized (0.05% Trypsin-EDTA) at 25° C. for 2-3 minutes and washed twice with Tyrode's solution. The cell viability and concentration were determined using Vi-Cell. Cells were resuspended in Tyrode's solution.
(§7) Cells were loaded with the pH sensitive dye BCECF-AM (5 uM final concentration from the 30 mM DMSO stock solution) at 37° C. for 30 minutes before being washed twice to remove excess dye and resuspended to 2 million/ml cells in Tyrode's solution. Cells were seeded into a 96-well plate (200,000 cells/well) directly onto the test compound or a reference compound for 10 minutes at 37° C. Following incubation with test compounds, 25 ul of 30 mM Sodium-L-lactate was added. This addition was performed on the FlexStation III as a part of a real-time kinetic protocol. The ratio of cellular fluorescence at 535 nm after excitation at 490 nm/440 nm was measured over time for baseline (pre-lactate addition) and post-lactate addition for 60 sec with or without compounds present. Inhibitory concentration response curves were generated for compounds and their IC50 values calculated.

MCT4 = biological target: T2, MCT4 (Homo sapiens, UniProt O15427); test: MCT4 transport assay (L-lactate influx, BCECF-AM intracellular pH); assay type: cell-based; conditions: MDA-MB-231 cells expressing exclusively MCT4
T2 construct: MDA-MB-231 cells—a triple negative human breast cancer cell line expressing exclusively MCT4 (confirmed by Western blotting); host or cells: MDA-MB-231
T2 sequence (O15427 2-465 limits assumed): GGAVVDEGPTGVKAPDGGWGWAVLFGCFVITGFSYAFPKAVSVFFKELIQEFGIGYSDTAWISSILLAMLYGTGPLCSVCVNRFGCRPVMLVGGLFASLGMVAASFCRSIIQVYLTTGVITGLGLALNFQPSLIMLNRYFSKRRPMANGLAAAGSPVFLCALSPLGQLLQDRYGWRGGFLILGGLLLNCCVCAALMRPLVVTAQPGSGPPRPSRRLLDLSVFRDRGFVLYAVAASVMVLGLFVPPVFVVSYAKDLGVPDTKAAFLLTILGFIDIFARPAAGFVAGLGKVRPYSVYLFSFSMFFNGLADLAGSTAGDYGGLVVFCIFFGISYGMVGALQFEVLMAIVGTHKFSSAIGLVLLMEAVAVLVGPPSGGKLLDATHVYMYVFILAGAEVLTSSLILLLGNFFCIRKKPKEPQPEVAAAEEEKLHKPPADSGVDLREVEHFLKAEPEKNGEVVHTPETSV
Experimental: as §1, §2, §3, §4, §5, §6, §7

Compound	IC50 (MCT1) [nM]	IC50 (MCT4) [nM]
Cc1nc2nc(C)c(O[C@@H]3CCN(c4ccc(-c5ccc(CN6CC(C(=O)N(C)C)C6)nn5)cc4)C3)c(C)n2n1 [Compound 12, (R)-N,N-dimethyl-1-((6-(4-(3-((2,5,7-trimethyl-[1,2,4]triazolo[1,5-a]pyrimidin-6-yl)oxy)pyrrolidin-1-yl)phenyl)pyridazin-3-yl)methyl)azetidine-3-carboxamide]	> 1000	< 100
COC1CN(C(=O)[C@H]2CC[C@H](c3ccc(N4CC[C@@H](Oc5c(C)nc6nc(C)nn6c5C)C4)cc3)CC2)C1 [Compound 34, (3-methoxyazetidin-1-yl)((1R,4r)-4-(4-((R)-3-((2,5,7-trimethyl-[1,2,4]triazolo[1,5-a]pyrimidin-6-yl)oxy)pyrrolidin-1-yl)phenyl)cyclohexyl)methanone]	> 1000	< 100
Cc1nc2nc(C)c(O[C@@H]3CCN(c4ccc(-c5ccc(C(=O)N6CC(C(=O)N(C)C)C6)nn5)cc4)C3)c(C)n2n1 [Compound 18, (R)-N,N-dimethyl-1-(6-(4-(3-((2,5,7-trimethyl-[1,2,4]triazolo[1,5-a]pyrimidin-6-yl)oxy)pyrrolidin-1-yl)phenyl)pyridazine-3-carbonyl)azetidine-3-carboxamide]	> 1000	< 100
Cc1nc2nc(C)c(O[C@@H]3CCN(c4ccc(-c5ccc(C(=O)N6CC(S(C)(=O)=O)C6)nn5)cc4)C3)c(C)n2n1 [Compound 16, (R)-(3-(methylsulfonyl)azetidin-1-yl)(6-(4-(3-((2,5,7-trimethyl-[1,2,4]triazolo[1,5-a]pyrimidin-6-yl)oxy)pyrrolidin-1-yl)phenyl)pyridazin-3-yl)methanone]	> 1000	< 100
Cc1nc2nc(C)c(O[C@@H]3CCN(c4cnc(C56CC(CN7CCOCC7)(C5)C6)nc4)C3)c(C)n2n1 [Compound 23, (R)-4-((3-(5-(3-((2,5,7-trimethyl-[1,2,4]triazolo[1,5-a]pyrimidin-6-yl)oxy)pyrrolidin-1-yl)pyrimidin-2-yl)bicyclo[1.1.1]pentan-1-yl)methyl)morpholine]	> 1000	< 100
Cc1nc2nc(C)c(O[C@@H]3CCN(c4ccc(-c5ccc(C(=O)N6CC(N(C)C)C6)nn5)cc4)C3)c(C)n2n1 [Compound 15, (R)-(3-(dimethylamino)azetidin-1-yl)(6-(4-(3-((2,5,7-trimethyl-[1,2,4]triazolo[1,5-a]pyrimidin-6-yl)oxy)pyrrolidin-1-yl)phenyl)pyridazin-3-yl)methanone]	> 1000	< 100
Cc1nc2nc(C)c(O[C@@H]3CCN(c4cnc(C56CC(C(=O)N7CCOCC7)(C5)C6)nc4)C3)c(C)n2n1 [Compound 26, (R)-morpholino(3-(5-(3-((2,5,7-trimethyl-[1,2,4]triazolo[1,5-a]pyrimidin-6-yl)oxy)pyrrolidin-1-yl)pyrimidin-2-yl)bicyclo[1.1.1]pentan-1-yl)methanone]	> 1000	100 to 499
Cc1nc2nc(C)c(O[C@@H]3CCN(c4cnc(C56CCC(CN7CCOCC7)(CC5)CC6)nc4)C3)c(C)n2n1 [Compound 6, (R)-4-((4-(5-(3-((2,5,7-trimethyl-[1,2,4]triazolo[1,5-a]pyrimidin-6-yl)oxy)pyrrolidin-1-yl)pyrimidin-2-yl)bicyclo[2.2.2]octan-1-yl)methyl)morpholine]	> 1000	< 100

Continued, values first:

IC50 (MCT1) [nM]	IC50 (MCT4) [nM]	Compound
> 1000	< 100	COC1CN(C(=O)c2ccc(-c3ccc(N4CC[C@@H](Oc5c(C)nc6nc(C)nn6c5C)C4)cc3)nn2)C1 [Compound 14, (R)-(3-methoxyazetidin-1-yl)(6-(4-(3-((2,5,7-trimethyl-[1,2,4]triazolo[1,5-a]pyrimidin-6-yl)oxy)pyrrolidin-1-yl)phenyl)pyridazin-3-yl)methanone]
> 1000	< 100	Cc1nc2nc(C)c(O[C@@H]3CCN(c4ccc(-c5ccc(CN6CC(N(C)C)C6)nn5)cc4)C3)c(C)n2n1 [Compound 9, (R)-N,N-dimethyl-1-((6-(4-(3-((2,5,7-trimethyl-[1,2,4]triazolo[1,5-a]pyrimidin-6-yl)oxy)pyrrolidin-1-yl)phenyl)pyridazin-3-yl)methyl)azetidin-3-amine]
> 1000	500 to 1000	Cc1nc2nc(C)c(O[C@@H]3CCN(c4ccc(-c5ccc(C(=O)N6CC(C(N)=O)C6)nn5)cc4)C3)c(C)n2n1 [Compound 17, (R)-1-(6-(4-(3-((2,5,7-trimethyl-[1,2,4]triazolo[1,5-a]pyrimidin-6-yl)oxy)pyrrolidin-1-yl)phenyl)pyridazine-3-carbonyl)azetidine-3-carboxamide]
> 1000	< 100	Cc1nc2nc(C)c(O[C@@H]3CCN(c4ccc([C@H]5CC[C@H](C(=O)N6CC7(COC7)C6)CC5)cc4)C3)c(C)n2n1 [Compound 33, (2-oxa-6-azaspiro[3.3]heptan-6-yl)((1R,4r)-4-(4-((R)-3-((2,5,7-trimethyl-[1,2,4]triazolo[1,5-a]pyrimidin-6-yl)oxy)pyrrolidin-1-yl)phenyl)cyclohexyl)methanone]
> 1000	< 100	Cc1nc2nc(C)c(O[C@@H]3CCN(c4ccc(-c5ccc(C(=O)N6CCOCC6)nn5)cc4)C3)c(C)n2n1 [Compound 19, (R)-morpholino(6-(4-(3-((2,5,7-trimethyl-[1,2,4]triazolo[1,5-a]pyrimidin-6-yl)oxy)pyrrolidin-1-yl)phenyl)pyridazin-3-yl)methanone]
> 1000	< 100	Cc1nc2nc(C)c(O[C@@H]3CCN(c4ccc([C@H]5CC[C@H](C(=O)N6CCOCC6)CC5)cc4)C3)c(C)n2n1 [Compound 35, morpholino((1R,4r)-4-(4-((R)-3-((2,5,7-trimethyl-[1,2,4]triazolo[1,5-a]pyrimidin-6-yl)oxy)pyrrolidin-1-yl)phenyl)cyclohexyl)methanone]
> 1000		Cc1nc2nc(C)c(O[C@@H]3CCN(c4ccc(-c5ccc(CN6CCOCC6)nn5)cc4)C3)c(C)n2n1 [Compound 1, (R)-4-((6-(4-(3-((2,5,7-trimethyl-[1,2,4]triazolo[1,5-a]pyrimidin-6-yl)oxy)pyrrolidin-1-yl)phenyl)pyridazin-3-yl)methyl)morpholine]

Source: US20230192704A1, “MONOCARBOXYLIC ACID TRANSPORTER 4 (MCT4) MODULATORS AND USES THEREOF” (Teon Therapeutics, Inc., priority 2020, published 2023)
